Test results taken from patent US20220298541A1, “ASSAY FOR DETERMINING TARGET ENGAGEMENT IN REAL-TIME IN LIVING SYSTEMS” (Indian Institute of Science Education and Research, priority 2021, published 2022).
Residues, ends and D or L forms follow the SMILES beside them. *: point of attachment. Cbz = O=C(OCc1ccccc1)*; CH2F = FC*

Key:
caspase-3 [1] = target: T1, caspase-3 (Homo sapiens, UniProt P42574); experiment: Screening protease inhibitors by BRET-approach of AbRGT in 96 well plates, caspase-3 RLuc transfected MCF-7 cells; type: cell-based
T1 construct: expressed in transfected cells; host or cells: MCF-7 (caspase-3 null); 2 in A4
T1 sequence (P42574 29-175 limits assumed): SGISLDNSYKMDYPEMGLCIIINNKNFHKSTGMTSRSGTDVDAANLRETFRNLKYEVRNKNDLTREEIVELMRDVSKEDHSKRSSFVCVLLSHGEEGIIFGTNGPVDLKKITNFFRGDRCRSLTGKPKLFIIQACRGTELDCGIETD
T1 sequence (P42574 176-277 limits assumed): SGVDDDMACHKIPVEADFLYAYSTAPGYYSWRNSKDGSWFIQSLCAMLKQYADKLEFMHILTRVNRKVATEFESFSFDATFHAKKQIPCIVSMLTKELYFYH
Excerpt: To show BRET-approach of AbRGT can be used for the high-throughput screening of inhibitors four different inhibitors; Z-VAD-FMK, C-inhibitor-II, E-64, and Q-VD-OPh were selected. Z-VAD-FMK, E-64, and Q-VD-OPh are irreversible inhibitors, while cpm-VAD-CHO is a reversible inhibitor. Z-VAD-FMK and Q-VD-OPh are widely known pan-caspase inhibitors that inhibit caspases with a different mechanism.
For inhibitor screening in a high-throughput format, caspase-3 RLuc transfected MCF-7 cells in 96 well plates were treated with STS (1 μM) for 4 h. Subsequently, after STS treatment, cells were incubated with Z-VAD-FMK or E64 or Q-VD-OPh inhibitors at two different concentrations (25 or 50 μM) for 1 h. Cells were then labeled with the Rh-VAD-FMK probe for 1 h, followed by the addition of coelenterazine h. Immediately after coelenterazine h addition, average radiance was recorded in the donor emission and the acceptor emission channel. The BRET measurements were done by calculating the mBRET values of each sample.

caspase-3 [2] = experiment: Quantification of caspase-3 activation using BRET-approach of AbRGT in MCF-7 cells transiently transfected with pCMV-caspase-3-GGSRLuc 8.6; type: cell-based, human; settings: STS 1 μM for 4 h; transiently transfected MCF-7 cells; Rh-VAD-FMK probe; untreated control 11±9.2
Method: To determine the specific caspase-3 activation, pCMV-caspase-3-GGSRLuc 8.6 plasmid was overexpressed in the MCF-7 cell line since it is caspase-3 null. The cells were subjected to treatment with Staurosporine (STS) (1 μM) for 4 h for the induction of apoptosis. […] Subsequently, cells were incubated with ABFP, Rh-VAD-FMK probe (BRET acceptor) for the labeling of PoI, and other proteases of the same family. The RLuc 8.6 substrate coelenterazine h was added to the cells, and the average radiance was recorded in the donor emission channel, RLuc 8.6 (520-540 nm), and the acceptor emission channel, rhodamine (580-600 nm) channel. The BRET measurements were done by calculating the mBRET values for the STS treated versus untreated samples using the following equation.^7 Here, acceptor and donor is represented by (A) and (D), respectively.

caspase-3 [3] = experiment: Quantification of caspase-3 activation in Caspase-3 RLuc expressing stable MCF-7 clone no. 2 by BRET-approach of AbRGT; type: cell-based, human
Method: Luciferase activity in the MCF7 Caspase3-GGS-RLuc8.6 clone no. 2, 3, 4 was measured by the addition of luciferase substrate, coelentrazine. Immediately after substrate addition, average radiance value was recorded and plotted as a bar graph (FIG. 4.8). […] The caspase-3 activity in the clone 2 cells further quantified by the BRET-approach of AbRGT. MCF-7 Caspase3-GGS-RLuc8.6 clone no. 2 cells were treated with increasing concentration (0, 50, 100, and 200 nM) of STS for 4 h. Subsequently, cells were incubated with Rh-VAD-FMK probe for 1 h followed by the addition of coelentrazine h. Immediately after substrate addition, average radiance was recorded at donor and acceptor filters and the mBRET values were calculated and plotted as a bar graph (FIG. 9).

caspase-3 [4] = target: T1, caspase-3; experiment: Effect of protease inhibitor on STS dependent caspase activation (BRET based AbRGT, Rh-VAD-FMK probe); type: cell-based; settings: STS 0-4 μM followed by 1 h treatment with 50 μM Z-VAD-FMK; transiently transfected cells
Method: To check the effect of protease inhibitor Z-VAD-FMK on caspase activation, the pCMV-caspase-3-GGS-RLuc8.6 transiently transfected cells were treated with increasing concentration of STS(0-4 μM) followed by 1 h treatment of 50 μM of Z-VAD-FMK. The caspase3 activation was checked by BRET based AbRGT approach by using Rh-VAD-FMK probe. […] Thus we can use the BRET-approach of AbRGT to screen caspase inhibitors and activators. (FIG. 6).

In the case of `CC(C)[C@H](NC(=O)c1ccc2ccccc2n1)C(=O)N[C@@H](CC(=O)O)C(=O)COc1c(F)cccc1F` [Q-VD-OPh], the “mBRET values as compared to Z-VAD-FMK inhibitor” value (caspase-3 [1]; STS 1 μM 4 h, then inhibitor 25 or 50 μM for 1 h) is reported as “higher”.
In the case of `CN[C@@H]1C[C@H]2O[C@@](C)([C@@H]1OC)n1c3ccccc3c3c4c(c5c6ccccc6n2c5c31)C(=O)NC4` [STS, Staurosporine], the “mBRET value (indirect readout of specific caspase-3 activation)” value (caspase-3 [2]) is reported as 60±0.4, the “mBRET value of the sample in the absence of inhibitor” value (caspase-3 [1]; STS 1 μM for 4 h, no inhibitor, 96 well plate) is reported as 60±0.4 and the “change of mBRET values with increasing STS concentration” value (caspase-3 [3]; 0, 50, 100 and 200 nM STS for 4 h, clone no. 2) is reported as “increase”. For the same compound, the “increase in mBRET as compared to the untreated cells” value (caspase-3 [3]; 200 nM STS for 4 h, MCF-7 Caspase3-GGS-RLuc8.6 clone no. 2) was ~4 fold.
For `COC(=O)C[C@H](NC(=O)[C@H](C)NC(=O)[C@@H](NC(=O)OCc1ccccc1)C(C)C)C(=O)CF` [Z-VAD-FMK] (Cbz-Val-Ala-Asp(OMe)-CH2F), the “effect on caspase activation in presence of STS compared to only STS treated cells” value (caspase-3 [4]) was “inhibits the caspase activation”.
